Assay results reported in US6632808B1 (priority 1998, dated 2003).
Read-outs that look alike come from different tables or passages of the source. Marks after values point to notes of the source that are not given here.

How the values were obtained:
[1] = test system: PrP-res formation in scrapie infected neuroblastoma (ScNB) cells; format: cell-based, mouse; details: for % control PrP-res (at 10 μg TSP/ml): 10 μg/ml (~10 μM) meso-porphyrin, relative to untreated ScNB cells; for IC50: ScNB cells
[2] = biological target: conversion of hamster PrP-sen to PrP-res (Mesocricetus auratus, UniProt P04273); format: biochemical; details: 10 μg/ml tetrapyrrole; for conversion, % of control: mean SD
Sequence of conversion of hamster PrP-sen to PrP-res (P04273 23-230 limits assumed): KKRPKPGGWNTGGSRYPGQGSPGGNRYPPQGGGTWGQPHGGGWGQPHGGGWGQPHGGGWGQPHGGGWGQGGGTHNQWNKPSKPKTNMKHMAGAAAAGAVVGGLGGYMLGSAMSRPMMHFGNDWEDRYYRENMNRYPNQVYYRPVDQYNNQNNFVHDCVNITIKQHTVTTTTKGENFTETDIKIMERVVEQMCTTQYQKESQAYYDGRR

[3] = have been reported; cited from earlier work
[4] = mouse, in vivo, ip
[5] = footnote b values are half-way between 10-fold dilutions (~±50%), read-out: IC50 (μM), PrP-res formation, meso-porphyrins

Row | Compound | % control PrP-res (at 10 μg TSP/ml) [1] | IC50 [1, 5] | further results
1 | C1=Cc2nc1c(-c1ccncc1)c1ccc([nH]1)c(-c1ccncc1)c1nc(c(-c3ccncc3)c3ccc([nH]3)c2-c2ccncc2)C=C1 [T(4-Py)P] | 12 ± 0^a % | – | –
2 | C[n+]1ccccc1-c1c2nc(c(-c3cccc[n+]3C)c3ccc([nH]3)c(-c3cccc[n+]3C)c3nc(c(-c4cccc[n+]4C)c4ccc1[nH]4)C=C3)C=C2 [T(N-Me-2-Py)P] | 4 ± 3% | ~5 µM | inhibition of cell-free conversion, in words [2]: not significantly inhibitory
3 | C[n+]1cccc(-c2c3nc(c(-c4ccc[n+](C)c4)c4ccc([nH]4)c(-c4ccc[n+](C)c4)c4nc(c(-c5ccc[n+](C)c5)c5ccc2[nH]5)C=C4)C=C3)c1 [T(N-Me-3-Py)P] | 50 ± 0^a % | – | –
4 | C[n+]1ccc(-c2c3nc(c(-c4cc[n+](C)cc4)c4ccc([nH]4)c(-c4cc[n+](C)cc4)c4nc(c(-c5cc[n+](C)cc5)c5ccc2[nH]5)C=C4)C=C3)cc1 [T(N-Me-4-Py)P] | 50 ± 0% | – | conversion, % of control [2]: 66±18%
5 | O=C(O)c1ccc(-c2c3nc(c(-c4ccc(C(=O)O)cc4)c4ccc([nH]4)c(-c4ccc(C(=O)O)cc4)c4nc(c(-c5ccc(C(=O)O)cc5)c5ccc2[nH]5)C=C4)C=C3)cc1 [T(Ph-4-COOH)P] | 50 ± 0% | – | –
6 | C[N+](C)(C)c1ccc(-c2c3nc(c(-c4ccc([N+](C)(C)C)cc4)c4ccc([nH]4)c(-c4ccc([N+](C)(C)C)cc4)c4nc(c(-c5ccc([N+](C)(C)C)cc5)c5ccc2[nH]5)C=C4)C=C3)cc1 [T(Ph-4-NMe^+3)P] | – | 5 ± 0.8 µM | inhibition of cell-free conversion, in words [2]: not significantly inhibitory
7 | O=S(=O)(O)c1ccc(-c2c3nc(c(-c4ccc(S(=O)(=O)O)cc4)c4ccc([nH]4)c(-c4ccc(S(=O)(=O)O)cc4)c4nc(c(-c5ccc(S(=O)(=O)O)cc5)c5ccc2[nH]5)C=C4)C=C3)cc1 [T(Ph-4-SO^−3)P] | 44 ± 31% | ~5 µM | tolerability [3]: well tolerated
8 | Phthalocyanine tetrasulfonate [PcTS] | – | – | time detectable in the spleen after treatment had stopped [4]: at least 8 months; % control PrP-res (at 10 μg Pc/ml) ([1]; 10 μg Pc/ml (about 10 μM) in medium, 3-4 days, band intensity relative to untreated ScNB cells, mean ± SD): <3%; IC50 ([1]; concentration giving 50% inhibition of PrP-res formation relative to control, footnote a values are half-way between 10-fold dilutions (±50%), read-out: IC50 (μM), PrP-res formation, phthalocyanines): 0.5 µM; conversion, % of control [2]: 0±0%
